Entries after “also recorded” stand apart in the source; their conditions may differ.
Assays:
DP Ibovine = target: T1, DP Ibovine (Bos taurus, UniProt Q3ZCJ8); assay: Inactivation of DP I from bovine kidney (second-order rate constants); type: biochemical, Rinder
T1 construct: Inaktivierung der DP I aus Rinder- bzw. humaner Niere mittels H-Gly-Phe-NHO-Bz; from tissue; host or cells: bovine kidney

DP Ihum = target: T2, DP Ihum (Homo sapiens, UniProt P53634); assay: Inactivation of DP I from human kidney (second-order rate constants); type: biochemical
T2 construct: DP I (humane Niere); from tissue; host or cells: human kidney

DP I [1] = details: literature (Nikawa et al., 1992); cited from earlier work
Cathepsin B (hum. Leber) = target: T3, Cathepsin B (hum. Leber) (Homo sapiens, UniProt P07858); assay: Inactivation of cathepsin B (second-order rate constants); type: biochemical; details: Table 3
T3 construct: Cathepsin B (hum. Leber); from tissue; host or cells: human liver

DP I [2] = target: DP I (Homo sapiens, UniProt P53634); assay: Protection of glucagon from degradation by DP I, MALDI-TOF mass spectra; type: biochemical; details: 0.14 mM Glukagon, 40 mM TRIS/HCl pH 7,6; enzyme 15 nM; inhibitor 300 nM, 5 min preincubation with DP I
Source text: Schutz des Abbaus des Peptidhormons Glukagon durch Vorinkubation von DP I mit H-Gly-Phe-NHO-Bz
Abbildung 1: MALDI-TOF-Massenspektren von Reaktionslösungen, die Glukagon und DP I enthalten.

Cathepsin L (hum. Leber) = target: T4, Cathepsin L (hum. Leber) (Homo sapiens, UniProt P07711); assay: Inactivation of cathepsin L (second-order rate constants); type: biochemical; details: Table 3
T4 construct: Cathepsin L (hum. Leber); from tissue; host or cells: human liver

[3] = test system: "DCE" (Dynorphin Converting Enzyme); details: Demuth et al. 1991; cited from earlier work
[4] = DP Ibovine, inhibitor concentration 1e^-4 M, Table 2
[5] = DP Ihum, inhibitor concentration 1e^-4 M, Table 2
[6] = DP Ibovine, inhibitor concentration 2e^-5 M, Table 2
[7] = DP Ihum, inhibitor concentration 2e^-5 M, Table 2

T1 sequence (Q3ZCJ8 231-394 limits assumed): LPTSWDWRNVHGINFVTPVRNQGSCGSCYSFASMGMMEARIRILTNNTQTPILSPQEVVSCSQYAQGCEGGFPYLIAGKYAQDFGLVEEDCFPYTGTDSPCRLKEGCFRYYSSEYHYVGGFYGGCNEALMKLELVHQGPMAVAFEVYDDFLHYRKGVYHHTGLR
T1 sequence (Q3ZCJ8 25-143 limits assumed): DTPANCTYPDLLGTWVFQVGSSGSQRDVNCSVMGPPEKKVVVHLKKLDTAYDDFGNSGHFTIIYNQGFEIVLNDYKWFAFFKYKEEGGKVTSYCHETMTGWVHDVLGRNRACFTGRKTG
T1 sequence (Q3ZCJ8 395-463 limits assumed): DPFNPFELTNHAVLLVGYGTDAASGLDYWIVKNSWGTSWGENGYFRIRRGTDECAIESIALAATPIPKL
T2 sequence (P53634 231-394 limits assumed): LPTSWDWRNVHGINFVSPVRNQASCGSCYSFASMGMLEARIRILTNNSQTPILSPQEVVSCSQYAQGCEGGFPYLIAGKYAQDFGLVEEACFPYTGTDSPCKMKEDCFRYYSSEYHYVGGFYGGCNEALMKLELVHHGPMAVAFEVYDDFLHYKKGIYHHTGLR
T2 sequence (P53634 25-143 limits assumed): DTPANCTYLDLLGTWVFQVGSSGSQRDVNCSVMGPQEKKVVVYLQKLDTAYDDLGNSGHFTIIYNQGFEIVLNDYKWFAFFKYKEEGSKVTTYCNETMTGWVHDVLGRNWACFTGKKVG
T2 sequence (P53634 395-463 limits assumed): as the sequence (Q3ZCJ8 395-463 limits assumed) above, with A22S, L26M, S38G, L61V counted along it
T4 sequence (P07711 114-333): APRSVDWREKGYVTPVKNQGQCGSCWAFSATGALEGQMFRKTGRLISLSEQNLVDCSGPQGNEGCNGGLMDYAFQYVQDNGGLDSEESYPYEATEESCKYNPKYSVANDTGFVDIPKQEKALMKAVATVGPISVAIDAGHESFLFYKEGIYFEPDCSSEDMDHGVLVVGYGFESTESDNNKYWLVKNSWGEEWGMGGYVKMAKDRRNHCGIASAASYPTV
Chain of DP I (Homo sapiens, UniProt P53634) (P53634 25-463): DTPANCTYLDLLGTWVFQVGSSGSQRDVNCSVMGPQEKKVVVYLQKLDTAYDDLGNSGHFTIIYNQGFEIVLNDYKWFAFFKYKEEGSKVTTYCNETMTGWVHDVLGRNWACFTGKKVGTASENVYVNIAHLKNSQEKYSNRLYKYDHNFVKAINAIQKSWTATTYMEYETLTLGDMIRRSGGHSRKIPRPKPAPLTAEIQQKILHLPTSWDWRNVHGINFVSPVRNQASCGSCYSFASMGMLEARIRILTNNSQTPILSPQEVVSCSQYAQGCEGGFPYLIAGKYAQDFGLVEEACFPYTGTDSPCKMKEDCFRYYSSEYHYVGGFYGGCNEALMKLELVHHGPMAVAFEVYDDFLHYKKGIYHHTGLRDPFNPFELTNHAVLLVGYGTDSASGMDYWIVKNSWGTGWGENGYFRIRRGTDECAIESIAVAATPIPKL

With `C[C@H](NC(=O)OC(C)(C)C)C(=O)N[C@@H](C)C(=O)N[C@@H](C)C(=O)NOC(=O)c1ccccc1` [Boc-Ala-Ala-Ala-NHO-Bz] the kinact/Ki (DP Ibovine; [4]) was “keine Hemmung (1e^-4)” and the kinact/Ki (DP Ihum; [5]) was “keine Hemmung (1e^-4)”.
For `C[C@H](NC(=O)OC(C)(C)C)C(=O)N[C@@H](C)C(=O)NOC(=O)c1ccccc1` [Boc-Ala-Ala-NHO-Bz], the kinact/Ki (DP Ibovine; [4]) was “keine Hemmung (1e^-4)” and the kinact/Ki (DP Ihum; [5]) was “keine Hemmung (1e^-4)”.
For `C[C@H](NC(=O)OC(C)(C)C)C(=O)N1CCC[C@H]1C(=O)N[C@@H](Cc1ccccc1)C(=O)NOC(=O)c1ccccc1` [Boc-Ala-Pro-Phe-NHO-Bz], the kinact/Ki (DP Ibovine; [4]) was “keine Hemmung (1e^-4)” and the kinact/Ki (DP Ihum; [5]) was “keine Hemmung (1e^-4)”.
For `CC(C)C[C@H](NC(=O)[C@H]1O[C@@H]1C(=O)O)C(=O)NCCCCN=C(N)N` [E-64], the “Inhibierung der DP I” value (DP I [1]) is given as “nur schwach inhibiert; also recorded: inert”.
With `NCC(=O)N[C@@H](Cc1ccccc1)C(=O)NOC(=O)c1ccccc1` [H-Gly-Phe-NHO-Bz, N-(H-Gly-Phe-),O-Benzoyl Hydroxylamin] the kinact/KI (DP Ibovine; DP I from bovine kidney, Table 1) was 36700 M⁻¹ s⁻¹, the kinact/KI (Cathepsin B (hum. Leber)) was 87 M⁻¹ s⁻¹ and the “Inhibierung des Glukagonabbaus durch DP I” value (DP I [2]) was “Inhibierung des Glukagonabbaus”. For the same compound, the kinact/Ki (DP Ihum; DP I (humane Niere), Table 3) was 34979 s^-1M^-1, the kinact/KI (DP Ihum; DP I from human kidney, Table 1) was 35000 M⁻¹ s⁻¹ and the kinact/KI (Cathepsin L (hum. Leber)) was 37 M⁻¹ s⁻¹.
In the case of `N[C@@H](Cc1ccc(O)cc1)C(=O)NCC(=O)NOC(=O)c1ccccc1` [H-Tyr-Gly-NHO-Bz], the kinact/KI (DP Ibovine; DP Ibovine, inhibitor concentration 1e^-6 M, Table 2) is given as 3950 M⁻¹ s⁻¹, the kinact/KI (DP Ihum; DP Ihum, inhibitor concentration 1e^-6 M, Table 2) is given as 3620 M⁻¹ s⁻¹ and the “Inhibierung des Enzyms DCE” value [3] is given as “nur schwach und reversibel inhibiert”.
In the case of `CC(=O)N[C@@H](CC(C)C)C(=O)N[C@@H](CC(C)C)C(=O)N[C@H](C=O)CCCNC(=N)N` [Leupeptin], the “Inhibierung der DP I” value (DP I [1]) is listed as “nur schwach inhibiert”.
For `Cc1ccc(C(=O)ONC(=O)[C@H](Cc2ccccc2)NC(=O)CNC(=O)OCc2ccccc2)cc1` [Z-Gly-Phe-NHO-Bz-CH3], the kinact/Ki (DP Ibovine; [6]) was “keine Hemmung (2e^-5)” and the kinact/Ki (DP Ihum; [7]) was “keine Hemmung (2e^-5)”.
In the case of `O=C(CNC(=O)OCc1ccccc1)N[C@@H](Cc1ccccc1)C(=O)NOC(=O)c1ccccc1` [Z-Gly-Phe-NHO-Bz], the kinact/KI (Cathepsin B (hum. Leber)) is reported as 418 M⁻¹ s⁻¹, the kinact/Ki (DP Ihum; DP I (humane Niere), Table 3) is reported as “Keine Hemmung” and the kinact/KI (Cathepsin L (hum. Leber)) is reported as 223 M⁻¹ s⁻¹.
For H-Ile-Pro-NHO-Nb, the kinact/Ki (DP Ibovine; [6]) was 149 M⁻¹ s⁻¹ and the kinact/Ki (DP Ihum; [7]) was 208 M⁻¹ s⁻¹.

Source: patent EP1188765B1, “Medical Use of Mechanism-oriented inhibitors of dipeptidyl peptidase I” (Probiodrug AG, priority 1998, dated 2000)
